Results taken from ChEMBL document CHEMBL1201862, “PubChem BioAssay data set” (2004).
Active and inactive are the calls of the source.

What was measured:
[1] = inhibitors of PGC1a acetylation in cells, dose response, cell-based, cherry-picked samples (AID 720514); format: functional;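 also: potency may reflect raised or lowered acetylation signal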
[2] = biological target: T1, Eukaryotic translation initiation factor 2-alpha kinase 3 (Homo sapiens, UniProt Q9NZJ5); assay: Dose response cell-based high-throughput screening assay to measure PERK inhibition. [Related pubchem assays: 1416 ]; format: functional
T1 sequence (Q9NZJ5 whole entry): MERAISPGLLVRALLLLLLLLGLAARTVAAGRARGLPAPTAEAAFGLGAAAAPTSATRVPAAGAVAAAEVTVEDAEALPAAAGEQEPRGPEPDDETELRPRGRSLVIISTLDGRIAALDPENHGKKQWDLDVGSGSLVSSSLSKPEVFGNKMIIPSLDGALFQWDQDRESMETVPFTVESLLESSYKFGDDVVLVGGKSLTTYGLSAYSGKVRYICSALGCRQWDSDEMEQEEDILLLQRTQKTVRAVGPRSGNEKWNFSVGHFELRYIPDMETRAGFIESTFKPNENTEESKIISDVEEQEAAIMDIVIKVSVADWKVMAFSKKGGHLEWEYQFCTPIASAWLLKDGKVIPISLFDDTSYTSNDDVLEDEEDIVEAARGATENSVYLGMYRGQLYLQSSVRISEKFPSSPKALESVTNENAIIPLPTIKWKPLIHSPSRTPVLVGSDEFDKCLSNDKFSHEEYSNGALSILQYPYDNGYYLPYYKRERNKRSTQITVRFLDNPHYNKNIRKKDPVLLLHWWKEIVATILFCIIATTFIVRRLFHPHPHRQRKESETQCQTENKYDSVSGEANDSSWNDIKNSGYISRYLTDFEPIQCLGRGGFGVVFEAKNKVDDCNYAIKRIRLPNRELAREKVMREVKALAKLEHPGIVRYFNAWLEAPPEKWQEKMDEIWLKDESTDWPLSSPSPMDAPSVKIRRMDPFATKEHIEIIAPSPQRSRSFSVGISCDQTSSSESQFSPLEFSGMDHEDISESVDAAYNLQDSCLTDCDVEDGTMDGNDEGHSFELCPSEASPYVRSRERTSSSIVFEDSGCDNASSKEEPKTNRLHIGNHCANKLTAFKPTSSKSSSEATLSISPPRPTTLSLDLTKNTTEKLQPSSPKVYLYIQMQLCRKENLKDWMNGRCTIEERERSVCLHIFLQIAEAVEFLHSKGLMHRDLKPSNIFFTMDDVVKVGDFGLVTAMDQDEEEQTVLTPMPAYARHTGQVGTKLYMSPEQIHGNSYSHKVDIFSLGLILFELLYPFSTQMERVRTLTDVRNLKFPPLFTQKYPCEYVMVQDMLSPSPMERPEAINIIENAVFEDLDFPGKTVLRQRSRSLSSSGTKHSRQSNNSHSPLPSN

[3] = biological target: T1, Eukaryotic translation initiation factor 2-alpha kinase 3; assay: Counterscreen assay for PERK inhibitors: Dose response cell-based high throughput screening assay to measure inhibition of PERK at 6 hours. [Related pubchem assays: 1522, 1416 ]; format: functional
NADPH oxidase 1 = biological target: T2, NADPH oxidase 1 (Homo sapiens, UniProt Q9Y5S8); format: functional, cell-based;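 also: Cell-based assay with luminescence read-out, IC50 derived from inhibitor dose-response curves; intracellular ROS from endogenous NOX1 in intact HT29 colon cancer cells; potency of inhibitors that lower the ROS luminescence signal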
T2 sequence (Q9Y5S8 whole entry): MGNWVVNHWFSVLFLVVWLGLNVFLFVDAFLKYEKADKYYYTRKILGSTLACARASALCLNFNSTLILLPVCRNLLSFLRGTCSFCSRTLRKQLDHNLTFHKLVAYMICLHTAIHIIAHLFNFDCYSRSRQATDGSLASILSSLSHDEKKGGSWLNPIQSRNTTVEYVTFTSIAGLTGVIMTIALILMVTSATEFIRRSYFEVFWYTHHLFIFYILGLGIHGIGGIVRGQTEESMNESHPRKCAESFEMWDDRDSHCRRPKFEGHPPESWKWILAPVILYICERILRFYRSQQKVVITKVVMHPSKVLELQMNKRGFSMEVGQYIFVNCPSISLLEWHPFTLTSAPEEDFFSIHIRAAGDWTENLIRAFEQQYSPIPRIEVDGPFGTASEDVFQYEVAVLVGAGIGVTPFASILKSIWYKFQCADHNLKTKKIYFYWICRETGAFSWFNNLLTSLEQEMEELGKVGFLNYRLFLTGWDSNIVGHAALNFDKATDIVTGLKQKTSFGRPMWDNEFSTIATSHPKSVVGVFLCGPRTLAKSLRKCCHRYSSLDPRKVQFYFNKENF

Caspase-6 = biological target: T3, Caspase-6 (Homo sapiens, UniProt P55212); assay: human caspase-6 inhibitors, dose response, biochemical, VEID-R110 fluorescence, cherry-pick (AID 720632)
T3 sequence (P55212 whole entry): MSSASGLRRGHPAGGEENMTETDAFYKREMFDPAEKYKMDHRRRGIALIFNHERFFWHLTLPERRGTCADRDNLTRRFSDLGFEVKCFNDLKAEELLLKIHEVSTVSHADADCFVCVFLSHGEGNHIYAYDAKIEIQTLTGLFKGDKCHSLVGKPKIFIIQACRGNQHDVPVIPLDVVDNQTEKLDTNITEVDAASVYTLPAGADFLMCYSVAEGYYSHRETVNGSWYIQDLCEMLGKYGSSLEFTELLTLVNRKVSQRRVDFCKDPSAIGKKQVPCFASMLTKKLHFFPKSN

[4] = biological target: T4, Carboxy-terminal domain RNA polymerase II polypeptide A small phosphatase 1 (Homo sapiens, UniProt Q9GZU7); assay: inhibitors of CTDSP1, concentration-response testing, biochemical assay, absorbance-based, actives from ultra-high-throughput screening (AID 540297); format: functional
T4 sequence (Q9GZU7 whole entry): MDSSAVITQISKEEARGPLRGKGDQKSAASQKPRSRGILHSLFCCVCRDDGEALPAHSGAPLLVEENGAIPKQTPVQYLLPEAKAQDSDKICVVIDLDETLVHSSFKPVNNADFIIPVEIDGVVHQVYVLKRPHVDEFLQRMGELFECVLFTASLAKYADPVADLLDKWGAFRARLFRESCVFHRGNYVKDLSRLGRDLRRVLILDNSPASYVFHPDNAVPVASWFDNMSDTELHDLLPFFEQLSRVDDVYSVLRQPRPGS

[5] = biological target: DNA dC->dU-editing enzyme APOBEC-3A (Homo sapiens, UniProt P31941); assay: Dose Response confirmation of small molecule APOBEC3A DNA Deaminase Inhibitors via a fluorescence-based single-stranded DNA deaminase assay. [Related pubchem assays (depositor defined):AID493011, AID493024]; format: functional
[6] = biological target: DNA dC->dU-editing enzyme APOBEC-3G (Homo sapiens, UniProt Q9HC16); format: functional;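 also: Dose-response counterscreen measuring inhibition of APOBEC3G DNA deaminase activity, run while confirming APOBEC3A inhibitors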
Cytochrome P450 2C19 = Cytochrome P450 2C19 (Homo sapiens, UniProt P33261); assay: qHTS Assay for Inhibitors and Substrates of Cytochrome P450 2C19. [Related pubchem assays: 410 ]; format: ADME; conditions: read-out: Potency
cells = format: functional
[7] = biological target: T5, Alkaline phosphatase, tissue-nonspecific isozyme (Homo sapiens, UniProt P05186)
T5 sequence (P05186 whole entry): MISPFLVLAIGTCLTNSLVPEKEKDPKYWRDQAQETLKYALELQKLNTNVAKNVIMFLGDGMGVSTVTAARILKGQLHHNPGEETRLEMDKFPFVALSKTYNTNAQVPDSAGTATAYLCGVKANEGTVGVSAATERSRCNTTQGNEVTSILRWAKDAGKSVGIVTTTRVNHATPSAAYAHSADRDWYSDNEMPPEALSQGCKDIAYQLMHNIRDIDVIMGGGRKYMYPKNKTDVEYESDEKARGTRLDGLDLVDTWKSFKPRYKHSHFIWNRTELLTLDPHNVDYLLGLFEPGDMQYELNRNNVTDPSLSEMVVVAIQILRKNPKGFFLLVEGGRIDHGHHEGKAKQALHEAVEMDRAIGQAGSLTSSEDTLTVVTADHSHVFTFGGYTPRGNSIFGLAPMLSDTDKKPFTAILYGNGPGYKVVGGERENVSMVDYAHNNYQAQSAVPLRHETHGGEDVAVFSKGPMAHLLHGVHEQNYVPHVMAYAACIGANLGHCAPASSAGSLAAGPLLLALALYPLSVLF

[8] = microbe, parasite or virus in culture; format: functional; conditions: Mycobacterium tuberculosis
[9] = A Cell Based Secondary Assay To Explore Cytotoxicity of Compounds that Sensitize Mycobacterium Tuberculosis to Beta-Lactam Antibiotics.; format: functional
[10] = control 3'UTR Renilla luciferase suppression, dose response, counter-screen for Shn3 inhibitor project, cell-based, Clone20-Shn3RL, cherry-picked (AID 624133); format: functional
[11] = HepG2 cell cytotoxicity, dose response, cytotoxicity control for Shn3 inhibitor project, CellTiter-Glo, cherry-picked (AID 624134); format: functional, cell-based
Mucolipin-3 = biological target: T6, Mucolipin-3 (Homo sapiens, UniProt Q8TDD5); assay: Dose response cell-based high-throughput screening assay for agonists of the transient receptor potential channel ML3 (TRPML3). [Related pubchem assays: 1526, 1424, 1448 ]; format: functional
T6 sequence (Q8TDD5 whole entry): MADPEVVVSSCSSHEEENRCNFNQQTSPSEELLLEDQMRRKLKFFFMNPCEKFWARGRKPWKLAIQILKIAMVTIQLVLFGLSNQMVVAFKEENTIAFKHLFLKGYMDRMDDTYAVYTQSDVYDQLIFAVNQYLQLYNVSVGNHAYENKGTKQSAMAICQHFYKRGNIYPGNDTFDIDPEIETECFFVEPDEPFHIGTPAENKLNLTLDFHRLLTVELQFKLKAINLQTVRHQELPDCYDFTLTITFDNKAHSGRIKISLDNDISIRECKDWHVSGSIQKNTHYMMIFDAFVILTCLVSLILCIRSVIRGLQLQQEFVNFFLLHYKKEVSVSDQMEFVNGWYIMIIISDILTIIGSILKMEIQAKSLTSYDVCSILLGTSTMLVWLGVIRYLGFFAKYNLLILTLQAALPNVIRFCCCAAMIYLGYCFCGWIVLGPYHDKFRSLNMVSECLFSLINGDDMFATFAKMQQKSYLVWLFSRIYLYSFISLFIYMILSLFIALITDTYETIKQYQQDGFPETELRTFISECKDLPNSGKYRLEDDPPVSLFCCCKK

Ion channel NompC = Ion channel NompC (Danio rerio, UniProt Q7T1G6); assay: Fluorescence counterscreen assay for TRPML3 agonists: dose response cell-based high-throughput screening assay to identify agonists of the transient receptor potential channel N1 (TRPN1). [Related pubchem assays: 1526, 1424, 1448 ]; format: functional
Sequence of Ion channel NompC (Q7T1G6 whole entry): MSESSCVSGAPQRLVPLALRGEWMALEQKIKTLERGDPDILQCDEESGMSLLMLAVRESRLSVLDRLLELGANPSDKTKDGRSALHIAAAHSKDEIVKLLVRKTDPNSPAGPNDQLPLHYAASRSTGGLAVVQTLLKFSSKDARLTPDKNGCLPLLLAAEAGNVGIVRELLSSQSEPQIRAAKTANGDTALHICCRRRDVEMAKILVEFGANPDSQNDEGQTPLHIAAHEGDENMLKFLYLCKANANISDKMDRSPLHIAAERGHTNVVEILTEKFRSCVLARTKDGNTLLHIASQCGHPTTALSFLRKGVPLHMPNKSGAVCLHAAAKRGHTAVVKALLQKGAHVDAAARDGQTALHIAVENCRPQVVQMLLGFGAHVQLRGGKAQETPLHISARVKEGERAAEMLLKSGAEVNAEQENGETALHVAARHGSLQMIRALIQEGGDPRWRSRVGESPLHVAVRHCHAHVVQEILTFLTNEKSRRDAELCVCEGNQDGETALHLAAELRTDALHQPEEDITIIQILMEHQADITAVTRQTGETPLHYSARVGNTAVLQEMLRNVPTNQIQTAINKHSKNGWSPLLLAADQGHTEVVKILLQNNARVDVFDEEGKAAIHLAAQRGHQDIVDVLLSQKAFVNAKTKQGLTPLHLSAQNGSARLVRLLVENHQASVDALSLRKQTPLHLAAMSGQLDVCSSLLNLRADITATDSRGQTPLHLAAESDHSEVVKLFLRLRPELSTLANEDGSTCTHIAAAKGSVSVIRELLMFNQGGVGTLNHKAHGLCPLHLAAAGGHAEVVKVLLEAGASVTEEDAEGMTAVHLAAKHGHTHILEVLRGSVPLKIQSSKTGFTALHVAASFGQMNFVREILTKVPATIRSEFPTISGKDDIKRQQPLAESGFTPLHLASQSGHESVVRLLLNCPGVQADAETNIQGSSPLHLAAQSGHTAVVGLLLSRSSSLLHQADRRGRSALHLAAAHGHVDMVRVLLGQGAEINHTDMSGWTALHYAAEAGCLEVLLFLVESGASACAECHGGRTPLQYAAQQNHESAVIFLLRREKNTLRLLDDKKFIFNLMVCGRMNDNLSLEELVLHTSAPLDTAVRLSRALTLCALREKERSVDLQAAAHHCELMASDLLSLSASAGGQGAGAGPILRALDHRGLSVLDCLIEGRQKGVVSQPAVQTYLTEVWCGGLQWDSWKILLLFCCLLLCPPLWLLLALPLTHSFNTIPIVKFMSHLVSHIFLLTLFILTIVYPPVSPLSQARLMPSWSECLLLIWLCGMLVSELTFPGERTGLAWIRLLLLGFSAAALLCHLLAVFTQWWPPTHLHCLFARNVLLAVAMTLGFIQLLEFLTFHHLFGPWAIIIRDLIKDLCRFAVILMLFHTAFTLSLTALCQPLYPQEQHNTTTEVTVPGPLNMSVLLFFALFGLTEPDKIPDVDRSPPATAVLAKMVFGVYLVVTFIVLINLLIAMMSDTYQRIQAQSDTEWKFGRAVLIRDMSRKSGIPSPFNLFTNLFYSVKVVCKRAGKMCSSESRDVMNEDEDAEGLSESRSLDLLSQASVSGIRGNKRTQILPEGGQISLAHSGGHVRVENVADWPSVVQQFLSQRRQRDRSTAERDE

Sequence of Cytochrome P450 2C19 (P33261 whole entry): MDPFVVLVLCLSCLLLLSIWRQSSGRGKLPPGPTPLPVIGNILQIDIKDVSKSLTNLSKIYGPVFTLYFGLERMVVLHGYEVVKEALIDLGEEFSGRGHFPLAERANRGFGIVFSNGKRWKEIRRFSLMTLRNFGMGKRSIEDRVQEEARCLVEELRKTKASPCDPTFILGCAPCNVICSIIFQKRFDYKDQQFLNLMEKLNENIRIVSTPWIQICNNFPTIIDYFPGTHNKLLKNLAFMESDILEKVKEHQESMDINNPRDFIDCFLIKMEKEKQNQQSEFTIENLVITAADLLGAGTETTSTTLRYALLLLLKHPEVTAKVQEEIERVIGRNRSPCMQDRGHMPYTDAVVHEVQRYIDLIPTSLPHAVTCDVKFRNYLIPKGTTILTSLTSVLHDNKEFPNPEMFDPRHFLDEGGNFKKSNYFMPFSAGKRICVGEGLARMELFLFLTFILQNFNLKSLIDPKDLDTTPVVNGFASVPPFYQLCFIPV
Sequence of DNA dC->dU-editing enzyme APOBEC-3G (Q9HC16 whole entry): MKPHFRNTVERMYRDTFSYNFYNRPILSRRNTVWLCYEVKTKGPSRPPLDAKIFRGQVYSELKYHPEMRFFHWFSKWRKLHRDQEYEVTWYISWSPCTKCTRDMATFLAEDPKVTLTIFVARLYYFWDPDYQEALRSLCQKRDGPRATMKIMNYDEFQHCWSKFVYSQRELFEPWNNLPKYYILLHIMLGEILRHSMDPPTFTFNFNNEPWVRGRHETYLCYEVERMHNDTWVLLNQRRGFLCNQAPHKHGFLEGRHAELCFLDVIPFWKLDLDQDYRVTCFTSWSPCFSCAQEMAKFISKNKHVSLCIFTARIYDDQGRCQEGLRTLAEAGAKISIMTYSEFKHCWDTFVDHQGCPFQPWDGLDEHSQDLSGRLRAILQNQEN
Sequence of DNA dC->dU-editing enzyme APOBEC-3A (P31941 whole entry): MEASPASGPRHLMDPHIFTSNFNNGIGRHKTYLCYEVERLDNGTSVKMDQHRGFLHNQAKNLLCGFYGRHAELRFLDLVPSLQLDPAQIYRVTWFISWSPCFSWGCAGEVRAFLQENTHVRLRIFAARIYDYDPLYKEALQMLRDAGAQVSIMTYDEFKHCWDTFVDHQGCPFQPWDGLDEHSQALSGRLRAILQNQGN

With CC(=O)N1CCN(S(=O)(=O)c2cccc(C(=O)Nc3ccc4c(c3)OCO4)c2)CC1 the AC50 [1] was 25.1 µM (active).

For O=C(Cc1ncon1)Nc1ccc(F)c(F)c1F, the EC50 [2] was > 55.7 µM (not active) and the EC50 [3] was > 55.7 µM (not active).

With CCN(CC(=O)NCc1ccc(Cl)cc1)C(=O)CSCC(=O)Nc1ccc(C)cc1 the AC50 [1] was 5.23 µM (active).

For CSc1ccc2c(c1)Nc1ccccc1S2, the IC50 (NADPH oxidase 1) was 0.241 µM (active).

With O=P(c1ccccc1)(c1ccccc1)c1cc(S(=O)(=O)O)ccc1O the AC50 (Caspase-6) was 1.78 µM (active), the IC50 [4] was 9.24 µM (active) and the IC50 [5] was 14.3 µM (active). The IC50 [6] was 45 µM (active).

For COC(=O)NC(c1ccccc1)C(C#N)C(=O)OC (stereo not given), the AC50 (Cytochrome P450 2C19) was 3.16 µM (inconclusive).

For CCCCN1C(=O)C2(NNc3ccccc3O2)c2ccccc21 (stereo not given), the IC50 (cells) was 36.5 µM (active), the EC50 [7] was < 0.195 µM (not active) and the CC50 [8] was > 40 µM (active).

In the case of CSc1ncc(Cl)c(C(=O)Nc2cccc3ccccc23)n1, the CC50 [9] is reported as > 40 µM (active).

With CC(C)(C)NS(=O)(=O)c1cccc2nsnc12 the EC50 [2] was > 55.7 µM (not active) and the EC50 [3] was > 55.7 µM (not active).

With CCOC(=O)C1CCN(C(=O)C(C)N(c2ccc(Oc3ccccc3)cc2)S(C)(=O)=O)CC1 (stereo not given) the AC50 [10] was 9.34 µM (active), the AC50 [11] was > 70 µM (inactive) and the EC50 (Mucolipin-3) was 6.8 µM (active). The EC50 (Ion channel NompC) was > 29.9 µM (not active).
